Experiment [1] deals with T1, beta-glucuronidase (Escherichia coli, UniProt P05804).
T1 construct: purchased Sigma Chemical Co
In words: Semiquantitative assay of beta-glucuronidase (4-MUG to fluorescent 4-MU). The class given is biochemical, E. coli. Further details: key: + indicates enzyme inhibition; - indicates no enzyme inhibition. The following applies: test inhibitor at 0.1 mM to 100 mM, 37° C., Tris pH 7, fluorescence by UV lamp. The procedure:
(§1) B-glucuronidase from E. coli and aryl sulfatase from Aerobacter aerogenes, 4-methyl umbelliferyl glucuronide, 4-methylumbelliferyl sulfate, 4-methylumbelliferone, and D-saccharic acid-.tangle-solidup.-lactone were purchased from Sigma Chemical Co. Sodium hexametaphosphate (SPORIX) was obtained from International Sourcing.
(§2) Semiquantitative assays of the exoenzymes beta-G and AS were prepared. The enzyme assays measure conversion at 37° C. of the non-fluorescent substrates 4-MUG (for beta-G) and 4-MUS (for AS) to fluorescent product, 4-MU. The assay mixtures contained:
(§3) For the semiquantitative studies, fluorescence was detected by long-wave UV lamp (Black-Light Eastern Corporation Model XX 15).
(§4) The effects of inhibitors on the enzymatic reactions were assessed by substituting aqueous Solutions of test inhibitor, at 0.1 mM to 100 mM, for the water. To rule out quenching of the fluorescence reaction by the inhibitors separate tests were performed comparing the fluorescence from 4-MU at the maximum concentration expected in the enzyme reaction mixtures with either inhibitor solution or water.
Various inhibiting compounds of mammalian beta-G's and AS's, as well as related materials, were tested in the assay. The classic inhibitor of beta-G is saccharic acid-.tangle-solidup.-lactone (glucarolactone). This material was tested as well as the simple sugars, mannose, fucose and galactosamine and the polysaccharide pullulan. One of the reported inhibitors of beta-G, EDTA, is a strong chelating agent. Also tested against the enzyme were o-phenanthroline, citrate, gluconate, nitrilotriacetate and hexametaphosophate.

Experiment [2] has as its target T2, aryl sulfatase (Klebsiella aerogenes, UniProt P20713).
T2 construct: purchased Sigma Chemical Co
T2 sequence (P20713 21-464): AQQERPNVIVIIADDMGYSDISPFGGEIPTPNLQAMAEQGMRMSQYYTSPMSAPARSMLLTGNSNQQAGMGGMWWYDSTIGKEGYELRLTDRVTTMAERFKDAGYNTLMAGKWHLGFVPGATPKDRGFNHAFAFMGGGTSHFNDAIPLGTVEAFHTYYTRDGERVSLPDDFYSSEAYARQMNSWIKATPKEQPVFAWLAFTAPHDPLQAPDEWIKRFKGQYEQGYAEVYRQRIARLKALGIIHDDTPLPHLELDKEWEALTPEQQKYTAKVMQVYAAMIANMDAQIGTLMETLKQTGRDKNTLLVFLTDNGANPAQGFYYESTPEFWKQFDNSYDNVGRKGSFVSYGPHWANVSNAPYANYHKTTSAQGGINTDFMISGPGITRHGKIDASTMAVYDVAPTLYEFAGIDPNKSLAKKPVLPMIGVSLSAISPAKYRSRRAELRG
The format is biochemical. On the set-up: key: + indicates enzyme inhibition; - indicates no enzyme inhibition. The procedure: as §1, §2, §3, §4
Various inhibiting compounds of mammalian beta-G's and AS's, as well as related materials, were tested in the assay. The classic inhibitor of beta-G is saccharic acid-.tangle-solidup.-lactone (glucarolactone). This material was tested as well as the simple sugars, mannose, fucose and galactosamine and the polysaccharide pullulan. […] Also tested against the enzyme were o-phenanthroline, citrate, gluconate, nitrilotriacetate and hexametaphosophate.

In experiment [3] the target is T1, beta-glucuronidase. Put plainly: Quantitative fluorimetric assay of beta-G. The class given is biochemical, E. coli. The following applies: FIG. 3; for level at which inhibition of beta-G is provided: in words; for effective inhibitor concentration range for beta-G: relative initial rate vs log inhibitor concentration, 37° C. The protocol: In addition to the semiquantitative assays several inhibitors of each, beta-G and AS, were assayed by quantitative fluorimetry. […] Prior to the performance of quantitative assays it was necessary to determine absorption and emission maxima of the fluorescent product 4-MU, as well as a concentration range for which the fluorescence intensity of this species varies linearly with concentration. A solution of 4-MU, 2 μg.ml, was prepared in 0.1M Tris buffer, pH 7.0. The absorption spectrum was scanned, giving a maximum at 334 nm. The emission maximum, 444 nm, was obtained by scanning the emission spectrum while irradiating at 334 nm. All quantitative fluorescence studies employed these parameters.
The levels of 4-MU generated in beta-G and AS assays fell into range 1. The conversion factor was 1 fluorescence unit=0.09 μM 4-MU.
Samples were prepared as described above. All components, except the enzyme, were warmed to 37° C. before addition of the enzyme. During the assays, reaction mixtures were maintained at 37° C. Fluorescence intensities were measured as a function of time.
As in the semi-quantitative tests, the progress of the reactions was indicated by the development of fluorescent product 4-MU from the non-fluorescent substrates, 4-MUG and 4-MUS. The data was recorded as fluorescence emission intensity as a function of time. […] Similar plots were constructed for each inhibitor. At each concentration, the beginning slope indicates the initial reaction rate. These rates were then expressed as a fraction of the uninhibited reaction rate and plotted against the log of the inhibitor concentration.

Experiment [4] deals with T2, aryl sulfatase. In words: Quantitative fluorimetric assay of AS. The class given is biochemical. The following applies: FIG. 4; relative initial rate vs log inhibitor concentration; 37° C.
Procedure: As in the semi-quantitative tests, the progress of the reactions was indicated by the development of fluorescent product 4-MU from the non-fluorescent substrates, 4-MUG and 4-MUS. The data was recorded as fluorescence emission intensity as a function of time. […] At each concentration, the beginning slope indicates the initial reaction rate. These rates were then expressed as a fraction of the uninhibited reaction rate and plotted against the log of the inhibitor concentration.
For a further experiment, the system named is mixture of AS and betaG. In words: Inhibition of odor from apocrine secretion treated with enzymes (panel odor evaluation). The format is biochemical, E. coli; Aerobacter aerogenes. The following applies: enzymes (AS + betaG) + apocrine sweat + inhibitor 40 mM; 37° C.; evaluated at 24 hr and 48 hr; panel of five. The procedure: (§5) Apocrine secretion fluid was collected from eleven subjects. The axillary area was shaved, washed with a 0.1% solution of Triton X-100, rinsed with water, blotted dry, then rinsed with hexane. An intradermal injection of 0.1 ml of 1:2000 adrenaline was performed to stimulate the apocrine glands. Micropipettes (10 μl) were placed directly against the skin to collect the droplets of apocrine secretion. Samples were frozen until ready for use. The samples were eluted from the capillary tubes with 0.1M Tris buffer, pH 7.0, when ready for use in the odor-generation studies. Lipophilic diphtheroid cultures isolated from human axillae were obtained.
(§6) Inhibiting compounds were then tested to determine their effect on odor production in apocrine secretion. Sterile, odorless apocrine secretion was eluted from capillaries into 1.5 ml of 0.1M Tris buffer, pH 7.0. In the first study, apocrine sweat was treated with beta-glucuronidase, (E. coli) and aryl sulfatase (Aerobacter aerogenes) at 0.01 mg/ml in Tris buffer, 0.1M, pH 7.0. The apocrine secretion was also treated with the lipophilic diphtheroid and with a mixed culture of axillary bacteria, each in sterile saline suspension.
(§7) In a second study, inhibitors of the two enzymes were included in the reaction mixtures--Zn++ as Zn-Glycinate, saccharic acid lactone and hexametaphosphate. The concentration of each inhibitor used in this study was 40 mM. […]

A further experiment relates to axillary odor. In words: Human clinical study of axillary deodorancy. The format is in vivo. As to conditions: for Mean Odor Score: four-judge average, ten-point scoring, Zn-GLY […], ACH 5.0%. The protocol: The negative control was water. Odor assessments were performed by four experienced professional evaluators from Hill Top Research, using a ten-point scoring system. Ninety subjects were recruited, and baseline scores were established after a twenty-four hour conditioning period. Sixty subjects with highest scores (all greater than 4) were retained for the study.
During the test the subjects were entered into a regimen of timed, supervised washes with conditioning soap bars, followed by supervised treatments with the test solutions and post-treatment odor evaluation. The evaluations were conducted at 5-hr and 24-hr intervals following treatments 2, 3 and 4 and all aspects were randomized to eliminate any biases.
Scores of the four judges were averaged for each person, for each evaluation. The axilla-to-axilla difference for each person was taken as the index of the deodorancy of the test material versus the water control.
The positive control was 5.0% aluminum chlorhydrate. […] The negative control was distilled deionized water.
The mean odor scores represent the four-judge average odor scores, post-treatment. The control values are the average baseline odor scores for the various cells.

For experiment [5], the system named is lipophilic diphtheroid. Put plainly: Minimum inhibitory concentration, lipophilic diphtheroid. The class given is cell-based. As to conditions: ">" = growth at the highest concentration. The protocol:
(§8) Minimum Inhibitory Concentration (MIC) values of several zinc complexes were measured for three organisms that occur naturally in the axilla: S. epidermidis, S. aureus and a lipophilic diphtheroid.
(§9) Simple salts of zinc are known to be bacteriostatic. An outcome of the experiments was producing a method to reduce axillary odor without destroying the natural flora of the axilla. Therefore MIC values of several zinc complexes and the antiseptic Irgasan DP 300 (positive control) were measured against several organisms that occur naturally in the underarm, including S epidermidis, S. aureus, and a lipophilic diphtheroid. The ">" signs indicate that bacterial growth occurred at the highest concentration of zinc compound. None of the zinc compounds were conspicuously inhibitory, having effective levels ranging from 0.1 to 1%.

In another experiment the test system is S. epidermidis. Put plainly: Minimum inhibitory concentration, S. epidermidis. The class given is cell-based. As to conditions: ">" = growth at the highest concentration. The procedure: as §8, §9
The test system of the next experiment is S. aureus. In words: Minimum inhibitory concentration, S. aureus. The class given is cell-based. The following applies: ">" = growth at the highest concentration. The procedure:
as §8, §9

Experiment [6] concerns lipophilic diphtheroid. Put plainly: Inhibition of odor from apocrine secretion treated with lipophilic diphtheroids (panel odor evaluation). The class given is cell-based. The following applies: lipophilic diphtheroids + apocrine sweat + inhibitor 40 mM; 37° C.; evaluated at 24 hr and 48 hr; panel of five. The procedure: as §5, §6, §7
[7] abbreviates: test inhibitor at 0.1 mM to 100 mM, 4-MUS, 37° C., Tris pH 7, fluorescence by UV lamp.

Like-named read-outs stand apart in the source and are kept apart here.

T1 sequence (P05804 whole entry): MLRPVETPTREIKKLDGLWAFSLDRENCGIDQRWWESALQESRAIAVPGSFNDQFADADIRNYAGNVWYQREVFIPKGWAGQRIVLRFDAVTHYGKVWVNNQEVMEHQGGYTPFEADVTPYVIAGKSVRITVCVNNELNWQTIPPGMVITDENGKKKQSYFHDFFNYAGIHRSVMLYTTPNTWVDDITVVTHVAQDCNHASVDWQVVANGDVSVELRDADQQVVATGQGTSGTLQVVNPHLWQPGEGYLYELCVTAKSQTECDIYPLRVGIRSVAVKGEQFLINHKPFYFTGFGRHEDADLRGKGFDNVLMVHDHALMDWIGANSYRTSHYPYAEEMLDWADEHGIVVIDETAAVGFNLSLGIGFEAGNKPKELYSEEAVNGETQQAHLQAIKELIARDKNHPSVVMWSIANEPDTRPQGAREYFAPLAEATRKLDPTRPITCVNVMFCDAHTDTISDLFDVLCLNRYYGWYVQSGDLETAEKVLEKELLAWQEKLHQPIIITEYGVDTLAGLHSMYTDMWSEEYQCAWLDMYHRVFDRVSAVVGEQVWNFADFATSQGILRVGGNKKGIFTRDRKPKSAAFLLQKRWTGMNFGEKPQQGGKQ

Regarding `O=C(O)CN(CCN(CC(=O)O)CC(=O)O)CC(=O)O` [EDTA, reference compound], the “inhibition of BETA-G” value on beta-glucuronidase [1] is given as “+”. Besides, the “inhibition of AS” value on aryl sulfatase [2] (setting [7]) is listed as “-”. For the same compound, the “level at which inhibition of beta-G is provided” value on beta-glucuronidase [3] is listed as “millimolar levels”.
In the case of `N[C@H]1C(O)O[C@H](CO)[C@H](O)[C@@H]1O` (stereo partly shown) [Galactosamine, galactosamine], the “inhibition of BETA-G” value at beta-glucuronidase [1] is given as “-”.
As for `[Cu+2]` [Cu++], the “inhibition of BETA-G” value on beta-glucuronidase [1] was “+”. Moreover, the “inhibition of AS” value at aryl sulfatase [2] (setting [7]) is “+”. The “effective inhibitor concentration range for beta-G” value at beta-glucuronidase [3] was 10 to 100 µM. For the same compound, the “effective inhibitor concentration range for AS” value at aryl sulfatase [4] lay in the range of 0.1 to 10 µM.
As for `O=P1([O-])OP(=O)([O-])OP(=O)([O-])OP(=O)([O-])OP(=O)([O-])OP(=O)([O-])O1.[Na+].[Na+].[Na+].[Na+].[Na+].[Na+]` [hexametaphosphate, Sodium hexametaphosphate], the “inhibition of BETA-G” value on beta-glucuronidase [1] was “+”. For the same compound, the “inhibition of AS” value on aryl sulfatase [2] (setting [7]) is reported as “+”. Besides, at aryl sulfatase [4], the “effective inhibitor concentration range for AS” value is given as 10-100 82 M. In addition, the odor result with mixture of AS and betaG is reported as “Faint/moderate musky-sweaty”.
For `[Zn+2]` [Zn++], the “inhibition of BETA-G” value on beta-glucuronidase [1] was “+”. In addition, the “inhibition of AS” value at aryl sulfatase [2] (setting [7]) is on record as “+”. Further, the “effective inhibitor concentration range for beta-G” value at beta-glucuronidase [3] fell in the range of 10 to 100 µM. Besides, the “effective inhibitor concentration range for AS” value at aryl sulfatase [4] is 10-100 82 M.
In the case of `O=C(O)CC(O)(CC(=O)O)C(=O)O` [Citrate], the “inhibition of BETA-G” value at beta-glucuronidase [1] was “-”.
As to aluminum chlorhydrate [ACH], the “% Difference (decrease in odor vs H2O axilla)” value amounted to 34.0% in the experiment with axillary odor (application #2, 5 hr); 27.8% in the experiment on axillary odor (application #2, 24 hr); 28.8% in the experiment with axillary odor (application #3, 5 hr); 26.1% in the experiment with axillary odor (application #3, 24 hr); 34.9% in the experiment on axillary odor (application #4, 5 hr); 29.5% in the experiment with axillary odor (application #4, 24 hr). In addition, the “Mean Odor Score” value in the experiment on axillary odor (application #2, 5 hr) amounted to 3.13; in the experiment on axillary odor (application #2, 24 hr) it was 3.91; in the experiment on axillary odor (application #3, 5 hr), 2.95; in the experiment with axillary odor (application #3, 24 hr) it was 3.88; in the experiment on axillary odor (application #4, 5 hr) it was 2.90; in the experiment with axillary odor (application #4, 24 hr), 3.64.
As to `O=S(=O)([O-])[O-].[Na+].[Na+]` [Sodium sulfate], at beta-glucuronidase [1], the “inhibition of BETA-G” value is given as “+”.
Consider `O=P(O)(O)O` [Orthophosphate], for which the “inhibition of AS” value at aryl sulfatase [2] (pH 7) is on record as “+”.
Regarding pullulan, the “inhibition of BETA-G” value at beta-glucuronidase [1] was “-”.
On the same count and under the same terms, then fucose, with “-”.
In the case of `c1cnc2c(c1)ccc1cccnc12` [O-phenanthroline, o-phenanthroline], the “inhibition of BETA-G” value at beta-glucuronidase [1] was “+”. Moreover, on beta-glucuronidase [3], the “level at which inhibition of beta-G is provided” value is reported as “millimolar levels”.
With `[Cl-].[Cl-].[Zn+2]` [ZnCl2], in the experiment on lipophilic diphtheroid [5], the “MIC, LIPOPHILIC DIPHTHEROID” value is above 1000 ppm. The “MIC, STAPHYLOCOCCUS EPIDERMIS” value against S. epidermidis is above 1000 ppm. Further, the “MIC, STAPHYLOCOCCUS AUREUS” value against S. aureus is given as above 1000 ppm.
In the case of `O=C(O)[C@@H](O)[C@H]1OC(=O)[C@H](O)[C@H]1O` [D-glucaro-.tangle-solidup.-lactone, D-saccharic acid-.tangle-solidup.-lactone, reference compound], the “inhibition of BETA-G” value on beta-glucuronidase [1] is reported as “+”. On beta-glucuronidase [3], the “effective inhibitor concentration range for beta-G” value was 1-10 μm. In addition, the odor entry was “No odor to faint musky-sweaty” in the experiment with mixture of AS and betaG; “Moderate sweaty” in the experiment with lipophilic diphtheroid [6].
With `Oc1cc(Cl)ccc1Oc1ccc(Cl)cc1Cl` [Irgasan, reference compound], in the experiment with lipophilic diphtheroid [5], the “MIC, LIPOPHILIC DIPHTHEROID” value was found to be 16 ppm. The “MIC, STAPHYLOCOCCUS EPIDERMIS” value against S. epidermidis is given as below 0.5 ppm. Also, the “MIC, STAPHYLOCOCCUS AUREUS” value in the experiment on S. aureus is below 0.5 ppm.
For the compound mannose, at beta-glucuronidase [1], the “inhibition of BETA-G” value was “-”.

For the origin of these results see patent US5676937A, “Deodorant compositions comprising inhibitors of odor-producing axillary bacterial exoenzymes” (Colgate-Palmolive Company, priority 1995, dated 1997).
